Assay results published in patent publication US9127078B2, “Methods and compositions using splicing regulatory proteins involved in tumor suppression” (The Trustees of the University of Pennsylvania, priority 2008, dated 2015).

Tested on: PKC-neg-40B-Luc minigene in 293T cells
Assay: Luciferase splicing reporter screen of the LOPAC 1280 library
Assay type: cell-based
Conditions: for Avg Med norm: luciferase fold-increase over the Average Median norm for each plate exclusive of Esrp1 control wells; for Avg Med norm / Avg DMSO Norm: 293T reporter cells, 24 hours; for Avg DMSO Norm: luciferase fold-increase over the Average control (DMSO) norm; for luciferase readings versus background reading: LOPAC screen, result in words
Protocol: Briefly, compounds from the LOPAC™ library were dissolved in DMSO. 293T cells (which express predominantly FGFR2-IIIc) which stably express the PKC-neg-40B-Luc minigene, as described in Example 1, were incubated with the compounds or with a DMSO control for 24 hours. After the incubation period, BriteLite luciferase readout reagent was added to each well and the plates were read on an Analyst HT multimode plate reader (Molecular Devices). As positive controls, we also added a cDNA encoding the mouse Esrp1 protein to individual wells on each plate.
The results were then ranked in order from largest fold change over background down to the DMSO blank.

Row | SMILES | Avg Med norm | Avg DMSO Norm | luciferase readings versus background reading
1 | CNCC(O)c1ccc(O)c(O)c1.Cl (racemic) [(±)-Epinephrine hydrochloride] | 1.714 fold | 1.674 fold | –
2 | CC(C)NCC(O)c1ccc(O)c(O)c1.Cl (racemic) [(±)-Isoproterenol hydrochloride] | 1.713 fold | 1.663 fold | –
3 | NC(N)=NC(=O)c1nc(Cl)c(N2CCCCCC2)nc1N [5-(N,N-hexamethylene)amiloride] | 1.643 fold | 1.762 fold | –
4 | CNC[C@H](O)c1ccc(O)c(O)c1.O=C(O)C(O)C(O)C(=O)O [(−)-Epinephrine bitartrate] | 1.696 fold | 1.654 fold | –
5 | C[C@H]1C[C@H]2[C@@H]3CCC4=CC(=O)C=C[C@]4(C)[C@@]3(Cl)[C@@H](O)C[C@]2(C)[C@@]1(O)C(=O)CO [Beclomethasone, 9alpha-Chloro-16beta-methyl-1,4-pregnadiene-11beta,17alpha,-21triol-3,20-dione] | 1.861 fold | 1.996 fold | significantly over the background reading
6 | Clc1ccccc1C(c1ccccc1)(c1ccccc1)n1ccnc1 [Clotrimazole, 1-(o-Chlorotrityl)-imidazole] | 1.671 fold | 1.792 fold | –
7 | CCNC(=O)[C@H]1O[C@@H](n2cnc3c(NCc4ccccc4)ncnc32)[C@H](O)[C@@H]1O [N6-Benzyl-5′-N-ethylcarboxamidoadenosine] | 1.822 fold | 1.953 fold | significantly over the background reading
8 | OC[C@H]1O[C@@H](n2cnc3c(Nc4ccccc4)ncnc32)[C@H](O)[C@@H]1O [N6-Phenyladenosine] | 1.942 fold | 2.095 fold | –
9 | COc1cccc(-c2cc(=O)c3ccccc3o2)c1N [PD 98,059, 2-(2-Amino-3-methoxyphenyl)-4H-1-benzopyran-4-one] | 1.783 fold | 1.923 fold | –
10 | CCCCCCCCCCCCCC(=O)O[C@@H]1[C@@H](C)[C@@]2(O)[C@@H](C=C(CO)C[C@]3(O)C(=O)C(C)=C[C@@H]23)[C@@H]2C(C)(C)[C@]12OC(C)=O [Phorbol 12-myristate 13-acetate] | 3.825 fold | 4.122 fold | significantly over the background reading
11 | COc1cc([C@@H]2c3cc4c(cc3[C@H](O)[C@H]3COC(=O)[C@H]23)OCO4)cc(OC)c1OC [Podophyllotoxin] | 2.036 fold | 1.985 fold | significantly over the background reading
12 | CC(C)NC[C@H](O)c1ccc(O)c(O)c1.O=C(O)C(O)C(O)C(=O)O [R(−)-Isoproterenol(+)-bitartrate] | 1.996 fold | 1.943 fold | significantly over the background reading
13 | COc1cccc(NC(=O)/C=C/c2ccc(Cl)cc2)c1 [SB-366791] | 1.665 fold | 1.795 fold | –
14 | Cc1ccc(O)c(N=Nc2ccccc2)n1 [SIB 1757, 6-Methyl-2-(phenylazo)-3-pyridinol] | 2.598 fold | 2.803 fold | significantly over the background reading
